From patent US7105564B1, “Pharmaceutical composition comprising a dual antagonist against PGD2/TXA2 receptors having a [2.2.1] or [3.1.1] bicyclic skeleton” (Shionogi & Co., Ltd., priority 1999, dated 2006)
Marks after values point to notes of the source that are not given here.

What was measured:
[1] = test system: Male Hartley guinea pigs; test: Antigen-induced bronchial hyperresponsiveness; assay type: in vivo, guinea pig; conditions: for Log PD200: acetylcholine dose for 200% increase in bronchoconstriction; for induction of bronchial hyperresponsiveness (in words): summary of Tables 34-36
Protocol: Antigen-induced bronchial hyperresponsiveness
Male Hartley guinea pigs were actively sensitized to ovalbumin (OVA) by inhalation of aerosolized solution of 1% ovalbumin twice at a week interval. One week after the second sensitization, the animals were treated with antihistamine, diphenhydramine (10 mg/kg, i.p.), and then challenged with 1% OVA aerosol for 5 min. Twenty four hours later, acetylcholine at doses at 3.13, 6. 25, 12.5, 25, 50 and 100 micro g/kg was sequentially injected into the animals which were anesthetized with pentobarbital (30 mg/kg, i.p.). The bronchoconstriction induced by each dose of acetylcholine was monitored by the modified method of Konzett-Rössler technique, and made a dose-response curve of acetylcholine. Using the dose-response curve, the dose required for 200% increase in bronchoconstriction from baseline (PD200) was calculated in each animal and used as an indication of bronchial responsiveness. Compounds were orally administered 1 hour before antigen challenge. **: P<0.01 vs Vehicle(Dunnett's test), ##: P<0.01 vs Vehicle(Student's t test).

[2] = biological target: T1, PGD2 receptor (Homo sapiens, UniProt Q13258); test: Binding activity to PGD2 receptor in human platelet membrane fraction ([3H]PGD2); set-up: The platelets were homogenized using a homogenizer (Ultra-Turrax) followed by centrifugation 3 times at 20,000 rpm; from tissue; host or cells: human platelet membrane fraction from blood of healthy volunteers; conditions: Comparative Experiment 1; read-out: Experiment 1 Antaginistic activity against PGD2 receptor IC50
T1 sequence (Q13258 1-359): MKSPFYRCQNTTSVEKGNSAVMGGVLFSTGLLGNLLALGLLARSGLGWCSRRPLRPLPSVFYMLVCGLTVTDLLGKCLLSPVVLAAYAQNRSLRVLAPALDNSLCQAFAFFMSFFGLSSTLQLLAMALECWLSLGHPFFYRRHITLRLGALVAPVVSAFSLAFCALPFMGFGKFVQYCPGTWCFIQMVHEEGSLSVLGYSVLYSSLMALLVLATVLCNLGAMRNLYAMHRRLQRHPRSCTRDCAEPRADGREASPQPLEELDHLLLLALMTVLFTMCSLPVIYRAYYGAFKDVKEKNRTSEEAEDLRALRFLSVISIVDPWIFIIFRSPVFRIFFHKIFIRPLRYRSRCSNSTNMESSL
Protocol: Experiment 1 Binding activity to PGD2 Receptor
(1) Preparation of Human Platelet Membrane Fraction
Blood was collected using a plastic syringe containing 3.8% sodium citrate from the vein of healthy volunteers (adult male and female), then put into a plastic test tube and mixed by slow-reversion. The sample was then centrifuged at 1800 rpm, for 10 min at room temperature, and the supernatant containing PRP (platelet-rich plasma) was collected. The PRP was recentrifuged at 2300 rpm, for 22 min at room temperature to obtain platelets. The platelets were homogenized using a homogenizer (Ultra-Turrax) followed by centrifugation 3 times at 20,000 rpm, 10 min at 4° C.. to obtain a platelet membrane fraction. After protein determination, the membrane fraction was adjusted to 2 mg/ml and preserved in a refrigerator at −80° C.. until using for the binding test.
(2) Binding to PGD2 Receptor
To a binding-reaction solution (50 mM Tris/HCl, pH 7.4, 5 mM MgCl2) (0.2 ml) were added the human platelet membrane fraction (0.1 mg) and 5 nM [^3H]PGD2 (115 Ci/mmol), and the mixture was reacted at 4° C. for 90 min. After the reaction, the mixture was filtered through a glass fiber filter paper and washed several times with cooled physiological saline, then the radioactivity retained on the filter paper was measured. The specific-binding ratio was calculated by subtracting the non-specific binding ratio which is the radioactivity similarly measured in the presence of 10 μM PGD2 from the total binding.

[3] = test system: Male Hartley guinea pigs; test: Antigen-induced bronchoconstriction; assay type: in vivo, guinea pig; conditions: for antigen-induced bronchoconstriction (in words): summary of Tables 40-42
Protocol: Antigen-induced bronchoconstriction
Male Hartley guinea pigs were passively sensitized by intravenous injection of anti-OVA serum (antibody titer: 1: 3200), and 48 hours later, the animals were challenged by intravenous injection of OVA (70 micro g/kg). The bronchoconstriction induced by antigen was continuously monitored by means of modified method of Konzett-Rössler technique. The peak value of bronchoconstriction in each animal was used for evaluation of compounds. Compound (I-1b) and compound (B-2) were orally administered 1 hour before, compound (A) 2 hours before antigen challenge. The results are shown as follows. *: P<0.05 vs Vehicle, ##: P<0.01 vs Vehicle. ( ): inhibition %.

[4] = test system: Male Hartley guinea pigs; test: Antigen-induced increase in the eosinophil number in bronchoalveolar lavage fluid; assay type: in vivo, guinea pig; conditions: for Eosinophils, inhibition % / Total cells, inhibition % / Cell number, Eosinophils / Cell number, Total cells: 10 mg/kg orally, 1 hour before and 24 and 48 hours after challenge; for Cell number, Eosinophils / Cell number, Total cells: BAL 72 hours; for eosinophil infiltration (in words): summary of Tables 37-39
Protocol: Antigen-induced increase in the eosinophil number in bronchoalveolar lavage fluid.
As described above, the animals were sensitized and challenged with antigen, seventy-two hours later, bronchoalveolar lavage was performed with 10 mL of saline. After the number of total cells in the recovered fluid was counted, smear samples were made. The samples were stained with May Grünward-Giemsa Stain, and differential cell count was performed by counting 500 cells/each sample. The eosinophil number was calculated by the ratio of the number of eosinophils, macrophages, neutrophils and lymphocytes. Compounds were orally administered three times 1 hour before and 24 and 48 hours after the challenge. The results are shown as follows. *: P<0.05, * *: P<0.01 vs Vehicle(Dunnett's test), : P<0. 01 vs Vehicle(Student's t test). ( ): inhibition %.

[5] = biological target: T1, PGD2 receptor; test: Antagonistic activity against PGD2 receptor using human platelet (inhibition of cAMP increase caused by PGD2); assay type: cell-based; conditions: Comparative Experiment 1; read-out: Experiment 3 Antaginistic activity against PGD2 receptor IC50
Protocol: Experiment 3 Evaluation of Antagonistic Activity Against PGD2 Receptor Using Human Platelet
Peripheral blood was collected from a healthy volunteer using a syringe in which 1/9 volume of a citric acid/dextrose solution was previously added. The sample was subjected to centrifugation at 180 g for 10 min to obtain the supernatant (PRP: platelet rich plasma). The resultant PRP was washed 3 times with a washing buffer and the number of platelets was counted with a micro cell counter. A suspension adjusted to contain the platelets at a final concentration of 5×10^8/ml was warmed at 37° C., then subjected to the pre-treatment with 3-isobutyl-1-methylxanthine (0.5 mM) for 5 min. To the suspension was added a test compound diluted at various concentration, and 10 minutes later, 0.1 μM PGD2 was added to induce the reaction 2 minutes later, hydrochloric acid was added to terminate the reaction. The platelet was destroyed with an ultrasonic homogenizer. After centrifugation, the cAMP in the supernatant was determined by radioimmunoassay. PGD2 receptor antagonism of a drug was evaluated as follows: the inhibition rate regarding cAMP increased by the addition of PGD2 was determined at each concentration, and the concentration of the drug required for 50% inhibition (IC50) was calculated.

[6] = 1 mg/kg orally 1 hour before antigen challenge
[7] = 10 mg/kg orally 1 hour before antigen challenge
[8] = 3 mg/kg orally 2 hours before antigen challenge
[9] = 10 mg/kg orally 2 hours before antigen challenge
[10] = 30 mg/kg orally 1 hour before antigen challenge

IC50 [2] [µM]	IC50 [5] [µM]	Structure (SMILES)	Log PD200 [1, 6]	Log PD200 [1, 7]	induction of bronchial hyperresponsiveness (in words) [1]	Peak bronchoconstriction [3, 8] [cm H2O]	Peak bronchoconstriction, inhibition % [3, 8] [%]	Peak bronchoconstriction [3, 9] [cm H2O]	Peak bronchoconstriction, inhibition % [3, 9] [%]	antigen-induced bronchoconstriction (in words) [3]	Eosinophils, inhibition % [4] [%]	Total cells, inhibition % [4] [%]	Cell number, Eosinophils [4]	Cell number, Total cells [4]	eosinophil infiltration (in words) [4]	Peak bronchoconstriction [3, 6] [cm H2O]	Peak bronchoconstriction, inhibition % [3, 6] [%]	Peak bronchoconstriction [3, 10] [cm H2O]	Peak bronchoconstriction, inhibition % [3, 10] [%]
> 10	> 10	O=C(O)CCC/C=C\C[C@H]1[C@@H]2CC[C@@H](C2)[C@@H]1NS(=O)(=O)c1ccccc1 [A]	1.29 ± 0.04	1.61 ± 0.09**	suppressed	55.3 ± 6.7	7	18.8 ± 3.3	68	dramatically suppressed	−18	−18	4.90 ± 0.73 ×10^6 cells/animal	13.78 ± 1.75 ×10^6 cells/animal	did not show any inhibitory actions	–	–	–	–
–	–	CC1(C)[C@H]2C[C@H](C/C=C\CCCC(=O)O)[C@@H](NC(=O)c3csc4ccc(O)cc34)[C@@H]1C2 [Compound B-2]	–	1.17 ± 0.05	did not inhibit	–	–	–	–	did not suppress	43	45	4.49 ± 0.63 ×10^6 cells/animal	13.01 ± 1.58 ×10^6 cells/animal	significantly suppressed	36.5 ± 18.2	−20	51.8 ± 16.3	−71
